According to PubChem BioAssay AID588407 (The Scripps Research Institute Molecular Screening Center, 2011):
“And” between values parts separate entries of the source, which are not always exact repeats. Identical values can stand only once. The source made the active and inactive calls. The rule behind the calls is not given here.

target: Mu-type opioid receptor (Homo sapiens) + Delta-type opioid receptor (Homo sapiens) (UniProt P35372+P41143); experiment: OPRM1-OPRD1 heterodimer agonist potency – cell-based, luminescence, dose response (AID 588407); details: cells, MOR-DOR heterodimerization;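 note: potency of agonists raising the heterodimer signal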
Sequence (P35372 whole entry, looked up): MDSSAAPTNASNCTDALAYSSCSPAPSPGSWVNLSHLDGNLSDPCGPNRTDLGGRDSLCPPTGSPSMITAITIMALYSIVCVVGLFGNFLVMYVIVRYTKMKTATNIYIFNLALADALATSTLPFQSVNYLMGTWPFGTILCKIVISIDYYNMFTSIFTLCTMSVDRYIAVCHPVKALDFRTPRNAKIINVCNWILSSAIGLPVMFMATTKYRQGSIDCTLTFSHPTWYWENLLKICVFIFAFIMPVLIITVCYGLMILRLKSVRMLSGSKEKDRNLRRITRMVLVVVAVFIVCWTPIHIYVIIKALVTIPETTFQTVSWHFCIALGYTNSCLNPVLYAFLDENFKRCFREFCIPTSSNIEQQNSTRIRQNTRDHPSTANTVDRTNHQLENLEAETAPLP
Sequence (P41143 whole entry, looked up): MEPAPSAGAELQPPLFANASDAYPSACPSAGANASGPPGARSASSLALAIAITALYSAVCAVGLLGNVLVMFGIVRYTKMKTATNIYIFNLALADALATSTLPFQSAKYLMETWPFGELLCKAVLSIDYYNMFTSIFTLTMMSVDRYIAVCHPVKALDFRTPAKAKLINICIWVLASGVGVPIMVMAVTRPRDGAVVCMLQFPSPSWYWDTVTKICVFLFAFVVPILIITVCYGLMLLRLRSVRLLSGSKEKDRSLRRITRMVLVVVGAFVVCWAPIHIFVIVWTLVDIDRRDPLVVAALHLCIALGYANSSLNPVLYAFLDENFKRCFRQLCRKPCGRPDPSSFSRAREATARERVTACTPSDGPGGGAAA

Which EC50 does the source give for `CC(=O)Nc1ccc(CN2CCCC(C(=O)c3cccc(C(F)(F)F)c3)C2)cc1` (stereo unspecified) here?
The EC50 was 9.35 µM.

For `COc1ccc(C(C)NCCC(c2ccc(OC(C)C)cc2)c2ccccc2OC)cc1` (stereo unspecified), which EC50 is on record?
The EC50 was “inactive”.

Which EC50 does the source give for `CN(C)CCCN(C(=O)c1ccc(S(=O)(=O)N2CCCCCC2)cc1)c1nc2c(F)cc(F)cc2s1` here?
Its EC50 is 5.86 µM.

Which EC50 does the source give for `COc1ccc(-c2nc(CN3CCC(C(=O)NC4CCCc5ccccc54)CC3)c(C)o2)cc1OC` (stereo unspecified) here?
Its EC50 is 1.9 µM.

For `COc1ccc(C(CNC(=O)/C=C/c2c(Cl)nc3ccccn23)N(C)C)cc1` (stereo unspecified), which EC50 is on record?
The EC50 was 7.62 µM.

`CC(C)n1ncc2c(C(=O)Nc3cccc(C#N)c3)cc(C3CC3)nc21` was tested. Which EC50 did it give?
The EC50 was 3.59 µM.

For `Cc1ccc(Cn2c(=N)n(CC(O)COc3ccccc3)c3ccccc32)cc1` (stereo unspecified), which EC50 is on record?
The EC50 was “inactive”.

For `COc1cc(C(=O)OC(C)C(=O)NCC2CCCCC2)cc(NC(=O)c2ccco2)c1OC` (stereo unspecified), which EC50 is on record?
Its EC50 is > 92.5 µM (inactive).

How did the EC50 turn out when `CN(C)C(CNC(=O)CSC(=S)N1CCCC1)c1ccccc1` (stereo unspecified) was run?
The EC50 was 0.969 µM.

With `Cc1ccc(C)c(-n2cc(CNCCCn3cccn3)c(-c3ccccc3)n2)c1` as the molecule, how does the EC50 read?
Its EC50 is 0.654 µM.

`CCOC(=O)C1(CC2CCCCO2)CCN(Cc2cc(F)ccc2-n2cccn2)CC1` (stereo unspecified) was tested. Which EC50 did it give?
The EC50 was 8.74 µM.

How did the EC50 turn out when `CN1C2C=C(N(CCc3ccccc3)C(=O)c3ccc(Cl)cc3)CC1CC2` (stereo unspecified) was run?
The EC50 was “inactive”.

For `Cc1ccc(Cl)cc1NC(=O)CNCC(c1ccccc1)N(C)C` (stereo unspecified), which EC50 is on record?
Its EC50 is 9.86 µM.

For `Cc1ccc2cc(C(c3nnnn3Cc3ccccc3)N3CCc4ccccc43)c(=O)[nH]c2c1` (stereo unspecified), which EC50 is on record?
The EC50 was “inactive”.

With `COc1ccc(/C=C/C(=O)NC(=S)NCCc2ccc(OC)c(OC)c2)cc1` as the molecule, how does the EC50 read?
The EC50 was 8.72 µM.

Which EC50 does the source give for `COc1cc(Br)cc(/C=N/NC(=O)Cc2ccc(C(F)(F)F)cc2[N+](=O)[O-])c1O` here?
The EC50 was “inactive”.

With `Clc1ccc2c(N/N=C/c3ccccc3Br)ccnc2c1` as the molecule, how does the EC50 read?
The EC50 was 9.73 µM.

For `CN(C)C(CNC(C(=O)Nc1ccc([N+](=O)[O-])cc1Br)c1ccccc1)c1ccccc1` (stereo unspecified), which EC50 is on record?
The EC50 was 9.79 µM.

How did the EC50 turn out when `COc1ccc(C(CNC(=O)CCOc2ccccc2)N(C)C)cc1` (stereo unspecified) was run?
The EC50 was “inactive”.

For `CCOC(=O)C1(CCCc2ccccc2)CCN(Cc2cnn(C)c2)CC1`, which EC50 is on record?
The EC50 was 4.56 µM.

For `Cn1c(CN2CCN(c3cccc(Cl)c3)CC2)nc2ccccc21`, which EC50 is on record?
Its EC50 is 3.34 µM.

For `CN(C)c1ccc(C(CNC(=O)Cc2cccc3ccccc23)N(C)C)cc1` (stereo unspecified), which EC50 is on record?
Its EC50 is “inactive”.

`COc1cc(C2C(C#N)=C(N)N(c3sc4c(c3C#N)CCCC4)C3=C2C(=O)CC(C)(C)C3)cc(OC)c1OC` (stereo unspecified) was tested. Which EC50 did it give?
Its EC50 is “inactive”.

Which EC50 does the source give for `Cc1ccc(-n2cc(CNC(C)c3cnn(C)c3)c(-c3ccc(F)cc3)n2)cc1` (stereo unspecified) here?
Its EC50 is 0.151 µM.

How did the EC50 turn out when `COc1ccccc1NC(=O)c1sc2nc(C)cc(C)c2c1N` was run?
Its EC50 is > 92.5 µM (inactive).

With `CCc1ccc2nc(N(CCCN(C)C)C(=O)c3ccc(S(=O)(=O)N4CCc5ccccc5C4)cc3)sc2c1` as the molecule, how does the EC50 read?
Its EC50 is “inactive”.

Which EC50 does the source give for `Cc1cc(/C=C2/C(=O)NN(c3ccccc3)C2=O)c(C)n1-c1ccc(O)cc1` here?
Its EC50 is 8.46 µM.

With `CN1CCN(c2ccc(NC(=O)c3ccc(-c4cccc([N+](=O)[O-])c4)o3)cc2)CC1` as the molecule, how does the EC50 read?
The EC50 was “inactive”.

For `Cn1c(-c2c(N)n(CCc3ccccc3)c3nc4ccccc4nc23)nc2ccccc21`, which EC50 is on record?
The EC50 was 3.15 µM.

`Cc1cccc(OCCC(=O)NCC(c2ccccc2)N(C)C)c1` (stereo unspecified) was tested. Which EC50 did it give?
Its EC50 is “inactive”.

`CCc1ccc(NC(=O)N(CCCN2CCOCC2)Cc2cccs2)cc1` was tested. Which EC50 did it give?
Its EC50 is “inactive”.

With `COc1ccc2[nH]c3c(=O)n(/N=C/[C@H]4C(C)C=C(C)CC4C)c(=O)[nH]c3c2c1` (stereo partly specified) as the molecule, how does the EC50 read?
Its EC50 is > 92.5 µM (inactive).

`CCOC(=O)C1(CCOc2ccccc2)CCN(Cc2ccc(C)s2)CC1` was tested. Which EC50 did it give?
The EC50 was “inactive”.

`Cc1ccc(C)c(NC(=S)NCC(c2ccccc2)N(C)C)c1` (stereo unspecified) was tested. Which EC50 did it give?
Its EC50 is 0.535 µM.

With `CCOC(=O)C1(c2ccccc2)CCN(CCC(=O)Nc2ccc(F)cc2)CC1` as the molecule, how does the EC50 read?
The EC50 was 2.36 µM.

`Oc1ccc(Oc2ccc3c(C(F)(F)F)cc(C(F)(F)F)nc3n2)cc1` was tested. Which EC50 did it give?
Its EC50 is “inactive”.

Which EC50 does the source give for `CCOC(=O)c1c(C)[nH]c(C(=O)OC/C(O)=C(\C#N)c2nc3ccccc3[nH]2)c1C` here?
Its EC50 is > 92.5 µM (inactive).

With `Cc1cccc(NC(=S)NC(=O)CCc2ccccc2)c1` as the molecule, how does the EC50 read?
Its EC50 is > 92.5 µM (inactive).

`O=C(c1sc2ccccc2c1Cl)N(Cc1ccco1)C1CCS(=O)(=O)C1` (stereo unspecified) was tested. Which EC50 did it give?
Its EC50 is “inactive”.

`CCOC(=O)C1(CCc2ccccc2)CCN(Cc2ccc(NC(C)=O)cc2)CC1` was tested. Which EC50 did it give?
Its EC50 is 0.227 µM.

For `CCOC(=O)C1(CC2CCCCO2)CCN(Cc2nc(-c3cccs3)oc2C)CC1` (stereo unspecified), which EC50 is on record?
The EC50 was “inactive”.

For `CCN(Cc1ccccc1)S(=O)(=O)c1ccc(C(=O)N(CCCN(C)C)c2nc3c(C)c(C)ccc3s2)cc1`, which EC50 is on record?
Its EC50 is “inactive”.

For `CCOC(=O)c1c(C)[nH]c(C(=O)OCC(O)=C(C#N)c2nc3ccccc3[nH]2)c1C`, which EC50 is on record?
The EC50 was > 92.5 µM (inactive).

For `CCOC(=O)C1(CCc2ccccc2)CCN(Cc2ccco2)CC1`, which EC50 is on record?
Its EC50 is “inactive”.

For `Cc1cccc(NC(=S)NCC(c2cccnc2)N(C)C)c1C` (stereo unspecified), which EC50 is on record?
Its EC50 is 0.303 µM.

How did the EC50 turn out when `CCC(=O)OC1(c2cccc(C)c2)CC(C)N(C)CC1C` (stereo unspecified) was run?
Its EC50 is “inactive”.

How did the EC50 turn out when `Cc1ccc(NC(=O)c2ncn(CCCN[C@H](C)c3cccc4ccccc34)n2)cc1C` was run?
The EC50 was 9.88 µM.

How did the EC50 turn out when `Cc1ccc(CSCC(=O)N/N=C/c2sccc2C)cc1` was run?
The EC50 was 6.07 µM.

How did the EC50 turn out when `COc1ccc(CNCCc2c[nH]c3ccccc23)c(OC)c1C` was run?
The EC50 was “inactive”.

`COC(=O)C1=C(C)N(CCCC(=O)O)C(=O)NC1c1ccccc1OS(=O)(=O)c1ccc([N+](=O)[O-])cc1` (stereo unspecified) was tested. Which EC50 did it give?
Its EC50 is 5.73 µM.

With `C/C(=N/Nc1ccnc2cc(Cl)ccc12)c1ccc(N)cc1` as the molecule, how does the EC50 read?
The EC50 was “inactive”.

How did the EC50 turn out when `CCOC(=O)C1(CCOc2ccccc2)CCN(Cc2cnc(C)s2)CC1` was run?
The EC50 was 7.89 µM.

How did the EC50 turn out when `COC(=O)C1=CO[C@@H](C)[C@@H]2CN(CCc3c[nH]c4ccccc34)CC[C@H]12` was run?
The EC50 was 4.05 µM.

Which EC50 does the source give for `COC(=O)c1cc2c(n1S(=O)(=O)c1ccc(C)cc1)C(=O)C(=O)c1[nH]cc(C(=O)OCc3ccccc3)c1-2` here?
Its EC50 is 2.56 µM.

Which EC50 does the source give for `O=S(=O)(NC1CC1)c1ccc(S(=O)(=O)N2CCCC3(CCCCC3)C2)cc1` here?
Its EC50 is “inactive”.

Which EC50 does the source give for `CN(C)C(CNC(=S)Nc1ccccc1)c1cccnc1` (stereo unspecified) here?
The EC50 was 3.47 µM.

With `CCN1CCN(Cc2ccc(NC(=O)c3ccc(C)c(NC(=O)c4c[nH]c5cc(C(F)(F)F)ccc5c4=O)c3)cc2C(F)(F)F)CC1` as the molecule, how does the EC50 read?
Its EC50 is 9.63 µM.

For `Cc1occc1C(=O)N/N=C/c1ccc(-c2ccccc2)cc1`, which EC50 is on record?
Its EC50 is > 92.4 µM (inactive).

With `CC(=O)Nc1ccc(S(=O)(=O)NC2=C(N3CCN(Cc4ccccc4)CC3)C(=O)c3ccccc3C2=O)cc1` as the molecule, how does the EC50 read?
The EC50 was 1.38 µM and 1.63 µM.

`Cc1cc(=O)oc2cc(NC(=O)C3COc4ccccc4O3)ccc12` (stereo unspecified) was tested. Which EC50 did it give?
Its EC50 is “inactive”.

Which EC50 does the source give for `CSCCC(/C(O)=C(\C#N)c1nc2ccccc2[nH]1)N1C(=O)c2ccccc2C1=O` (stereo unspecified) here?
Its EC50 is 9.92 µM.

For `OCC1(CCc2ccccc2)CCN(Cc2cc(F)ccc2-n2cccn2)CC1`, which EC50 is on record?
Its EC50 is 4.67 µM.

`CCc1cccc(C)c1NC(=S)NCC(c1cccnc1)N(C)C` (stereo unspecified) was tested. Which EC50 did it give?
Its EC50 is 3.68 µM.

`O=C(Nc1ccccc1)c1ccc(NC2CCCCC2)c(S(=O)(=O)N2CCOCC2)c1` was tested. Which EC50 did it give?
The EC50 was “inactive”.

For `CCOC(=O)C1(CCOc2ccccc2)CCN(Cc2ccc3c(c2)OCCO3)CC1`, which EC50 is on record?
Its EC50 is “inactive”.

With `COc1ccc(C(C(=O)NC2CCCCC2)N(C(=O)Cc2c[nH]c3ccccc23)c2ccc(NC(C)=O)cc2)cc1OC` (stereo unspecified) as the molecule, how does the EC50 read?
Its EC50 is > 92.5 µM (inactive).

For `CCc1ccc(Nc2n[n+](-c3ccccc3)c(-c3c(Cl)cccc3Cl)s2)cc1`, which EC50 is on record?
The EC50 was 9.08 µM.

`COc1ccc(C(CNC(=O)C(Cc2ccccc2)NC(N)=O)N(C)C)cc1` (stereo unspecified) was tested. Which EC50 did it give?
Its EC50 is “inactive”.

For `COC(=O)CCCNC(=O)c1ccc(OC2CCN(CCc3ccccc3)CC2)cc1`, which EC50 is on record?
The EC50 was “inactive”.

`Cc1cc(N2CCN(c3ccc([N+](=O)[O-])c4cccnc34)CC2)c2ccccc2n1` was tested. Which EC50 did it give?
The EC50 was > 92.5 µM (inactive).

With `CN(C)S(=O)(=O)c1ccc(-c2csc(N/N=C/c3ccc(O)cc3)n2)cc1` as the molecule, how does the EC50 read?
Its EC50 is 9.95 µM.
